Patent publication US12582122B2, “Herbicidal compositions comprising clethodim” (BASF SE, priority 2024, dated 2026)

System: Digitaria insularis (DIGIN)
Assay: Post-emergence application in field trials, herbicidal activity (damage 0-100% vs untreated control)
Format: in vivo
Settings: solo, post-emergence field trial, 21 DAT, 0.5% MSO; for % herbicidal activity A-1: 50 g ai/ha; for % herbicidal activity B: 240 g ai/ha
Description: In the examples below, using the method of S. R. Colby (1967) “Calculating synergistic and antagonistic responses of herbicide combinations”, Weeds 15, p. 22ff., the value E, which is expected if the activity of the individual active compounds is only additive, was calculated:
[formula] • where • X=percent activity using active herbicide A at an application rate a; • Y=percent activity using active herbicide B (e.g. clethodim) at an application rate b; • E=expected activity (in %) by A+B at application rates a+b.
If the value found experimentally is higher than the value E calculated according to Colby, a synergistic effect is present.
On field test sites, natural weed infestation or seeded weeds were treated post-emergence of the weeds.
In the field trials, the weeds were treated as indicated below.
In the following experiments, the herbicidal activity for the individual herbicidal compositions (solo and mixture applications) was assessed at the indicated days after treatment (DAT). The assessments for the damage on undesired weeds caused by the composition was carried out using a scale from 0 to 100%, compared to the untreated control plants. Here, 0 means no damage and 100 means complete destruction of the plants.
Herbicide A-1 and clethodim were, together with addition of 0.5% MSO (methylated sed oil) as adjuvant, formulated in water as distribution medium (water volume 200 l/ha) and sprayed with commercial flat fan nozzles.

| SMILES | % herbicidal activity A-1 (DIGIN height 5-15 cm) [%] | % herbicidal activity A-1 (DIGIN height 60-80 cm) [%] | % herbicidal activity B (DIGIN height 5-15 cm) [%] | % herbicidal activity B (DIGIN height 60-80 cm) [%] |
| --- | --- | --- | --- | --- |
| CCOC(=O)COc1ccccc1Oc1nc(-n2c(=O)cc(C(F)(F)F)n(C)c2=O)c(F)cc1Cl [A-1, ethyl 2-[2-[[3-chloro-5-fluoro-6-[3-methyl-2,6-dioxo-4-(trifluoromethyl)pyrimidin-1-yl]-2-pyridyl]oxy]phenoxy]acetate] | 57 | 62 | – | – |
| CCSC(C)CC1CC(=O)C(/C(CC)=N/OC/C=C/Cl)=C(O)C1 (stereo not shown) [B, clethodim] | – | – | 68 | 57 |
